Patent US6660741B2, “Asymmetric synthesis of (S,S,R)-(-)-actinonin and its analogs and uses therefor” (Sloan-Kettering Institute for Cancer Research, priority 2001, dated 2003)
Read-outs that look alike come from different tables or passages of the source.

What was measured:
PC-3 = test: XTT cytotoxicity assay, 5-day culture, PC-3; type: cell-based; details: Homo sapiens, 120 h, PC-3, Prostate Ca, 5 days, read-out: IC50 (μM ± SEM)
Experimental: (§1) Actinonin was assayed for cytotoxity in human ovarian carcinoma, prostate carcinoma, mammary carcinoma, head and neck squamous cell carcinoma (HNSSC), non-small-cell-lung-cancer adenocarcinoma (NSCLC-AdCa), and non-small-cell-lung-cancer squamous cells (NSCLC-SSC) (15). Actinonin was also tested against acute mylegenous leukemia (AML) cells.

SK-LC-16 = test: XTT cytotoxicity assay, 5-day culture, SK-LC-16; type: cell-based; details: Homo sapiens, 120 h, SK-LC-16, NSCLC-SSC, 5 days, read-out: IC50 (μM ± SEM)
Experimental: as §1

[1] = tested on: Daudi (B lineage Burkitt's lymphoma, CD13 negative) cells; test: Inhibition of tritiated thymidine incorporation, 5 day, Daudi; type: cell-based; details: Homo sapiens, 120 h, 5 days
Experimental: (§2) Actinonin was purchased from Sigma (St. Louis, Mo.). Biotinylated-Actinonin and all analogs were synthesized. Actinonin stock solution was 5 mg/ml in 10% ethanol. Biotinylated-actinonin and all other analogs were diluted in 10% DMSO to give stock solutions in the range of 1-20 mg/ml.
(§3) Daudi (B lineage Burkitt's lymphoma, CD13 negative) and HL60 (acute myeloid leukemia, CD13 positive) cells were maintained in culture using RPMI 1640 supplemented with 10% heat-inactivated FBS (Omega Scientific, Inc., Tarzana, Calif.) and 1% L-glutamine (Gibco/Invitrogen, Carlsbad, Calif.) at 37° C. in a humidified atmosphere of 5% CO2. Cell viability was higher than 90%, and cells were free of mycoplasma contamination.
(§4) An aliquot of 200 ul of cells (10,000 cells/well) was washed and incubated at 37° C. in 96-well plates in the presence or absence of actinonin/analogs. Serial dilutions were made in complete media. After 5 days of incubation, 50 ul of 10 uCi/mL tritiated thymidine (PerkinElmer, Boston, Mass.) was added to each well and allowed to incorporate for 5 hours. Plates were frozen at −80° C. overnight and cells were harvested onto filtermats (Wallac, Finland) using a semi-automatic harvester (Skatron, Sterling, Va.). Filtermats were counted in a 1205 Betaplate™ liquid scintillation counter (Wallac, Finland). The reference numbers refer to those analogs disclosed in Example 6. Compounds 35, 42, 48, 52, 53, and 56 are effective at inhibiting cell growth.

AKR leukemia = details: cited from earlier work
DU-145 = test: XTT cytotoxicity assay, 5-day culture, DU-145; type: cell-based; details: Homo sapiens, 120 h, DU-145, Prostate Ca, 5 days, read-out: IC50 (μM ± SEM)
Experimental: as §1

A2780 = test: XTT cytotoxicity assay, 5-day culture, A2780; type: cell-based; details: Homo sapiens, 120 h, A2780, Ovarian Ca, 5 days, read-out: IC50 (μM ± SEM)
Experimental: as §1

[2] = tested on: CWR22 human prostate tumor; details: for Change in tumor Vol. (mm^3): initial 45 mm^3; for Ave. Tumor Diameter (mm ± SEM): initial tumor diameter 4.4
Experimental: Actinonin was also evaluated against the CWR22 human prostate tumor xenografted in nude mice (15).

[3] = tested on: HL60 (acute myeloid leukemia, CD13 positive) cells; test: Inhibition of tritiated thymidine incorporation, 5 day, HL60; type: cell-based; details: Homo sapiens, HL-60, 120 h, HL60, 5 days
Experimental: as §2, §3, §4

MDA-MB468 = test: XTT cytotoxicity assay, 5-day culture, MDA-MB468; type: cell-based; details: Homo sapiens, MDA-MB-468, 120 h, MDA-MB468, Mammary Ca, 5 days, read-out: IC50 (μM ± SEM)
Experimental: as §1

HL-60 = test: XTT cytotoxicity assay, 5-day culture, HL-60; type: cell-based; details: Homo sapiens, 120 h, HL-60, PML, 5 days, read-out: IC50 (μM ± SEM)
Experimental: as §1

SK-LC-8 = test: XTT cytotoxicity assay, 5-day culture, SK-LC-8; type: cell-based; details: Homo sapiens, 120 h, SK-LC-8, NSCLC-AdCa, 5 days, read-out: IC50 (μM ± SEM)
Experimental: as §1

SK-BRIII = test: XTT cytotoxicity assay, 5-day culture, SK-BRIII; type: cell-based; details: Homo sapiens, 120 h, Mammary Ca, 5 days, read-out: IC50 (μM ± SEM)
Experimental: as §1

tumor cell lines = details: cited from earlier work
[4] = tested on: all the cell lines tested; test: Cytotoxicity of actinonin, summary over all cell lines tested; type: cell-based, human; details: in the μM range
Experimental: as §1

[5] = tested on: human leukemia and lymphoma cells; details: cited from earlier work
HT1080 = test: XTT cytotoxicity assay, 5-day culture, HT1080; type: cell-based; details: Homo sapiens, HT-1080, 120 h, HT1080, HNSSC, 5 days, read-out: IC50 (μM ± SEM)
Experimental: as §1

TSU-PR^1 = test: XTT cytotoxicity assay, 5-day culture, TSU-PR1; type: cell-based; details: Homo sapiens, 120 h, TSU-PR1, Prostate Ca, 5 days, read-out: IC50 (μM ± SEM)
Experimental: as §1

## CCCCC[C@H](CC(=O)NO)C(=O)N[C@H](C(=O)N1CCC[C@H]1CO)C(C)C [Actinonin, (S,S,R)-(−)-Actinonin]
PC-3
  IC50: 10 ± 1 µM
SK-LC-16
  IC50: 12 ± 2 µM
[1]; read-out: Daudi IC50 (uM), 5 day thymidine incorporation
  IC50: 6.7 µM
[1]; read-out: Daudi IC50 (ug/mL), 5 day thymidine incorporation
  IC50: 2.6 µg/mL
AKR leukemia; AKR mice
  treatment of AKR leukemia: treats AKR leukemia
AKR leukemia; mouse, in vivo
  toxicity in AKR mice: minimal toxicity
DU-145
  IC50: 17 µM
A2780
  IC50: 4.8 ± 1 µM
[2]; 300 mg/kg ip
  Inhibition T/C %: 97%
  Change in tumor Vol. (mm^3): +36 mm^3
  Ave. Tumor Diameter (mm ± SEM): 5.4 ± 1 mm
[2]; 600 mg/kg ip
  Inhibition T/C %: 88%
  Change in tumor Vol. (mm^3): +142 mm^3
  Ave. Tumor Diameter (mm ± SEM): 7.1 ± 2 mm
[2]; at a dose slightly below the maximum tolerated dose (MTD) for the mouse
  tumor growth inhibition: excellent tumor growth inhibition
[3]; read-out: HL60 IC50 (uM), 5 day thymidine incorporation
  IC50: 10.6 µM
[3]; read-out: HL60 IC50 (ug/mL), 5 day thymidine incorporation
  IC50: 4.1 µg/mL
MDA-MB468
  IC50: 7.1 ± 1 µM
HL-60
  IC50: 6.8 ± 1 µM
SK-LC-8
  IC50: 14 ± 2 µM
SK-BRIII
  IC50: 7.9 ± 1 µM
Tumor cell lines
  cytotoxicity towards tumor cell lines in vitro: exhibits cytotoxicity
[4]
  cytotoxicity against all the cell lines tested: remarkably cytotoxic
[5]
  cell cycle arrest and apoptosis: induces GI arrest and apoptosis
HT1080
  IC50: 11 ± 2 µM
TSU-PR^1
  IC50: 9.1 ± 1.5 µM
